Cc1ccc(NC(=O)C(C)Cl)cc1 (stereo not given)
Details	solubility (mole fraction)
in 2-butanone, 271.23 K	0.0774
in 2-butanone, 275.52 K	0.0829
in 2-butanone, 280.9 K	0.0892
in 2-butanone, 285.45 K	0.105
in 2-butanone, 291.46 K	0.115
in 2-butanone, 296.73 K	0.128
in 2-butanone, 302.41 K	0.13
in 2-butanone, 307.63 K	0.149
in 2-butanone, 313.15 K	0.173
in 2-butanone, 319.11 K	0.208
in acetone, 271.96 K	0.0616
in acetone, 283.37 K	0.0767
in acetone, 287.02 K	0.0811
in acetone, 290.81 K	0.0861
in acetone, 294.37 K	0.0917
in acetone, 300.04 K	0.105
in acetone, 302.89 K	0.114
in acetone, 307.95 K	0.136
in acetone, 310.94 K	0.15
in acetone, 315.55 K	0.155
in toluene, 273.24 K	0.00517
in toluene, 278.33 K	0.00719
in toluene, 285.5 K	0.00929
in toluene, 290.93 K	0.0125
in toluene, 297.29 K	0.0168
in toluene, 301.24 K	0.02
in toluene, 307.73 K	0.0278
in toluene, 312.06 K	0.0356
in toluene, 315.66 K	0.0413
in toluene, 321.66 K	0.0579

— BigSolDB 2.1
